Results taken from patent US8552002B2 (Novartis AG, priority 2004, dated 2013).
Read-outs that look alike come from different tables or passages of the source.

What was measured:
[1] = target: PDGFRβ (Homo sapiens, UniProt P09619); assay: Inhibition of PDGFRβ; assay type: biochemical
Protocol: Compounds selectively inhibiting the proliferation of these BCR-Abl transformed cells are tested for anti-proliferative activity on Ba/F3 cells expressing either wild type or the mutant forms of Bcr-abl. In addition, compounds are assayed to measure their capacity to inhibit FGFR35 (in an enzyme and cellular assay), FLT3, PDGFRβ, trkB, c-SRC, BMX, SGK, Tie2, Lck, JNK2α2, MKK4, c-RAF, MKK6, SAPK2α and SAPK2β kinases.

[2] = target: T1, wild type Bcr-abl (Homo sapiens, UniProt P00519); assay: Antiproliferative effect on cells expressing wild type Bcr-abl; assay type: cell-based; settings: cell proliferation
T1 construct: the major C-terminal part (exons 2-11) of the c-abl gene; expressed in transfected cells; host or cells: murine 32D (32D-p210) or Ba/F3 cells; the other entry of the earlier key: BCR (P11274, Breakpoint cluster region protein)
Protocol: 32D-p210 cells are plated into 96 well TC plates at a density of 15,000 cells per well. 50 μL of two fold serial dilutions of the test compound (Cmax is 40 μM) are added to each well (STI571 is included as a positive control). After incubating the cells for 48 hours at 37° C., 5% CO2, 15 μL of MTT (Promega) is added to each well and the cells are incubated for an additional 5 hours. The optical density at 570 nm is quantified spectrophotometrically and IC50 values, the concentration of compound required for 50% inhibition, determined from a dose response curve.
Compounds of the invention are tested for their antiproliferative effect on Ba/F3 cells expressing either wild type or the mutant forms of BCR-Abl (G250E, E255V, T315I, F317L, M351T) that confers resistance or diminished sensitivity to STI571. The antiproliferative effect of these compounds on the mutant-BCR-Abl expressing cells and on the non transformed cells were tested at 10, 3.3, 1.1 and 0.37 μM as described above (in media lacking IL3). The IC50 values of the compounds lacking toxicity on the untransformed cells were determined from the dose response curves obtained as describe above.

[3] = target: T2, FGFR35 (Homo sapiens, UniProt P22607); assay: FGFR35 (enzymatic assay), HTRF; assay type: biochemical; design: purchased Upstate; settings: purified FGFR35, 3 μM ATP; read-out: IC50 for the FGFR35 enzyme assay
Protocol: Kinase activity assay with purified FGFR35 (Upstate) is carried out in a final volume of 10 μL containing 0.25 μg/mL of enzyme in kinase buffer (30 mM Tris-HCl pH7.5, 15 mM MgCl2, 4.5 mM MnCl2, 15 μM Na3VO4 and 50 μg/mL BSA), and substrates (5 μg/mL biotin-poly-EY(Glu, Tyr) (CIS-US, Inc.) and 3 μM ATP). Two solutions are made: the first solution of 5 μl contains the FGFR35 enzyme in kinase buffer was first dispensed into 384—format ProxiPlate® (Perkin-Elmer) followed by adding 50 nL of compounds dissolved in DMSO, then 5 μl of second solution contains the substrate (poly-EY) and ATP in kinase buffer was added to each wells. The reactions are incubated at room temperature for one hour, stopped by adding 10 μL of HTRF detection mixture, which contains 30 mM Tris-HCl pH7.5, 0.5 M KF, 50 mM ETDA, 0.2 mg/mL BSA, 15 μg/mL streptavidin-XL665 (CIS-US, Inc.) and 150 ng/mL cryptate conjugated anti-phosphotyrosine antibody (CIS-US, Inc.). After one hour of room temperature incubation to allow for streptavidin-biotin interaction, time resolved florescent signals are read on Analyst GT (Molecular Devices Corp.). IC50 values are calculated by linear regression analysis of the percentage inhibition of each compound at 12 concentrations (1:3 dilution from 50 μM to 0.28 nM).
Target sequence in this assay (P22607 23-806): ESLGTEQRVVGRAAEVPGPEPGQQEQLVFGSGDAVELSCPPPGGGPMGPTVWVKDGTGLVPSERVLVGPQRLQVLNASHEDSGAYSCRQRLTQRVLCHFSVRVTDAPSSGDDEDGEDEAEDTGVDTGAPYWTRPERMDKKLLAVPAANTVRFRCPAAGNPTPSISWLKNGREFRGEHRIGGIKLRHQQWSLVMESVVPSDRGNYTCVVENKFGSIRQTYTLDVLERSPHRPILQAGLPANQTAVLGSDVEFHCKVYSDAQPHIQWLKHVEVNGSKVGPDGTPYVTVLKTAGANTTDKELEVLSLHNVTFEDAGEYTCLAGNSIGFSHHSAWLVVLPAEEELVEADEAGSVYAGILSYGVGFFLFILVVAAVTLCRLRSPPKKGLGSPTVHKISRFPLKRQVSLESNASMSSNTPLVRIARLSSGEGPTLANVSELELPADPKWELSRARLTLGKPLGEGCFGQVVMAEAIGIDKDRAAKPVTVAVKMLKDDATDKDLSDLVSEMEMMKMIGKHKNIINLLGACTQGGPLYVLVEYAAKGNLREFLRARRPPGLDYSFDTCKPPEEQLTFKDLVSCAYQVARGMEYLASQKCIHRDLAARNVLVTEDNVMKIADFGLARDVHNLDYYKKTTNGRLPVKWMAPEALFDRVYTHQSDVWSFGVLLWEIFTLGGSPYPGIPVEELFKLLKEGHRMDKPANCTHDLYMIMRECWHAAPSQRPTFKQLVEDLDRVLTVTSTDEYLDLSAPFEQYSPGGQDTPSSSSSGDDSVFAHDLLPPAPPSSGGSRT

[4] = target: T2, FGFR35; assay: FGFR35 (cellular assay), proliferation of Ba/F3-TEL-FGFR35 cells; assay type: cell-based; design: fused on or other part: N-terminal part of TEL (ETV6), which acts as the oligomerising partner; it is fused to the part of FGFR3 that carries the kinase; P41212 (Transcription factor ETV6); settings: 48 hours, read-out: IC50 for the FGFR35 cellular assay
Protocol: Compounds of the invention are tested for their ability to inhibit transformed Ba/F3-TEL-FGFR35 cells proliferation, which is depended on FGFR35 cellular kinase activity. Ba/F3-TEL-FGFR35 are cultured up to 800,000 cells/mL in suspension, with RPMI 1640 supplemented with 10% fetal bovine serum as the culture medium. Cells are dispensed into 384-well format plate at 5000 cell/well in 50 μL culture medium. Compounds of the invention are dissolved and diluted in dimethylsulfoxide (DMSO). Twelve points 1:3 serial dilutions are made into DMSO to create concentrations gradient ranging typically from 10 mM to 0.05 μM. Cells are added with 50 nL of diluted compounds and incubated for 48 hours in cell culture incubator. AlamarBlue® (TREK Diagnostic Systems), which can be used to monitor the reducing environment created by proliferating cells, are added to cells at final concentration of 10%. After additional four hours of incubation in a 37° C. cell culture incubator, fluorescence signals from reduced AlamarBlue® (Excitation at 530 nm, Emission at 580 nm) are quantified on Analyst GT (Molecular Devices Corp.). IC50 values are calculated by linear regression analysis of the percentage inhibition of each compound at 12 concentrations.

[5] = target: T3, KDR (Homo sapiens, UniProt P35968); assay: Inhibitory activity against KDR (VEGF-R2), in vitro data of Examples 170 and 207; assay type: biochemical; settings: read-out: KDR inhibition at 10 μM
T3 construct: expressed in transfected cells; host or cells: CHO cells
Summary of the method: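 KDR tyrosine phosphorylation detected by luminescence after overnight 4° C capture of 20 μg lysate protein with PY20:AP antibody. Lysates came from cells given compound for 2 h at 37° C, then final 20 ng/ml VEGF for 5 min; compound-free medium as control.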

[6] = target: T4, FGFR3 (K650E) (Homo sapiens, UniProt P22607, K650E); assay: Recombinant GST-FGFR-3-K650E tyrosine kinase assay (33P into poly(Glu,Tyr)); assay type: biochemical
T4 construct: amino acids 411-806 of the cytoplasmic domain of human FGFR-3, N-terminally fused to GST; made in house; host or cells: Sf9 insect cells (baculovirus)

[7] = target: c-Abl (Homo sapiens, UniProt P00519); assay: Inhibitory activity against c-Abl (Example 207); assay type: biochemical; settings: Examples 171 to 206
[8] = target: T5, Tek (Homo sapiens, UniProt Q02763); assay: Recombinant GST-Tek (Tie-2) tyrosine kinase assay (33P into poly(Glu,Tyr)); assay type: biochemical; settings: Examples 1 to 169
T5 construct: amino acids 773-1124 of the cytoplasmic kinase domain of human Tek, N-terminally fused to GST; made in house; host or cells: Sf9 insect cells (baculovirus)
Summary of the method: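 Read-out is filter-bound 33P in poly(Glu,Tyr) 4:1 (10 μg/mL) after 30 min at ambient temperature with 4.0 μM ATP. Enzyme: 150 ng human GST-Tek (aa 773-1124) from insect cells, in Tris pH 7.5 with Mn2+/Mg2+ and vanadate. IC50 fitted linearly over four concentrations, usually 0.01-10 μM.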

[9] = 10 μM, Examples 171 to 206, read-out: FGFR3 inhibition at 10 μM
[10] = 10 μM, Examples 1 to 169, read-out: FGFR3 (K650E) inhibition at 10 μM

T5 sequence (Q02763 773-1124): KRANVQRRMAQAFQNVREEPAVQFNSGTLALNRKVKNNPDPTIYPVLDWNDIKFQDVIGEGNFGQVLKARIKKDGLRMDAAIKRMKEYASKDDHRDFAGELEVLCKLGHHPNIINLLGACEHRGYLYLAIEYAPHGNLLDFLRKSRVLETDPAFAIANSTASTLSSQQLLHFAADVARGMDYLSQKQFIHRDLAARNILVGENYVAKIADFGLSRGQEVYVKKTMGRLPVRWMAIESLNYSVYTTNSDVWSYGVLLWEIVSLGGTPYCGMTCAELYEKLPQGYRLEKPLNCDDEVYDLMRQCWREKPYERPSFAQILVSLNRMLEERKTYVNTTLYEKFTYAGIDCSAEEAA
T3 sequence (P35968 20-1356): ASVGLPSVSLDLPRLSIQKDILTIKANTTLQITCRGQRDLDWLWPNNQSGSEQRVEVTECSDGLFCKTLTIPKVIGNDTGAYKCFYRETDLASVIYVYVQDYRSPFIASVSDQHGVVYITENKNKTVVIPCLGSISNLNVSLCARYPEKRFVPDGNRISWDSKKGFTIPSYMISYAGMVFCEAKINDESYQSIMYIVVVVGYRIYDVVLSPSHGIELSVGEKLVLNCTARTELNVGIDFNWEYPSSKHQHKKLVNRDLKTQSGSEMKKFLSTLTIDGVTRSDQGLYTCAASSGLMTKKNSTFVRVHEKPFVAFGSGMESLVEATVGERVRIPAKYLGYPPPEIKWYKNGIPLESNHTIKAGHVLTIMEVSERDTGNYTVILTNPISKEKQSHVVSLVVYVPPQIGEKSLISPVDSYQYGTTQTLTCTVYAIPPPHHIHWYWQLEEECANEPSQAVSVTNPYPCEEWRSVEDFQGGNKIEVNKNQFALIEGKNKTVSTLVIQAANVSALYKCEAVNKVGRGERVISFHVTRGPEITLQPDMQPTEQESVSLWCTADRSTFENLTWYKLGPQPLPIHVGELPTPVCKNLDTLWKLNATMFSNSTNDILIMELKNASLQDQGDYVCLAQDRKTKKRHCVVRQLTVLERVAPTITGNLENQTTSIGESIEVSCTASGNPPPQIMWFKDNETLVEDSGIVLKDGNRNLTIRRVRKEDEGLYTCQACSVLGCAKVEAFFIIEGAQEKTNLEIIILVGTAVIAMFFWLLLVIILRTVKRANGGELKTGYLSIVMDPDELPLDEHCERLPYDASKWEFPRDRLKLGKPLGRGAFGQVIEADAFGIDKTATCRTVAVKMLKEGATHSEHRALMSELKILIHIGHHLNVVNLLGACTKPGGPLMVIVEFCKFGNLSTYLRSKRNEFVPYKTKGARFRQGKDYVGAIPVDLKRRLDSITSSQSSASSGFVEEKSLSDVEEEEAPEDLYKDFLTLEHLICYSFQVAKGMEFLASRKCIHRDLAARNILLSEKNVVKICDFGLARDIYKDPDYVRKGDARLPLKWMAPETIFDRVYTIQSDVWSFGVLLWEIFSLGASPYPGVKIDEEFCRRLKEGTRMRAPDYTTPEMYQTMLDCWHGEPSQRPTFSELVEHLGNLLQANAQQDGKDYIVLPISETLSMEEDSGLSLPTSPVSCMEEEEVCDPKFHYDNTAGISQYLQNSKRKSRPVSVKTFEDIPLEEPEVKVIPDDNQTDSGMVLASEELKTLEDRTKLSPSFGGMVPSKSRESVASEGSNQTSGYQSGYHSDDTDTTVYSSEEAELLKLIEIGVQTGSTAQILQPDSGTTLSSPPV
T4 sequence (P22607 411-806 K650E): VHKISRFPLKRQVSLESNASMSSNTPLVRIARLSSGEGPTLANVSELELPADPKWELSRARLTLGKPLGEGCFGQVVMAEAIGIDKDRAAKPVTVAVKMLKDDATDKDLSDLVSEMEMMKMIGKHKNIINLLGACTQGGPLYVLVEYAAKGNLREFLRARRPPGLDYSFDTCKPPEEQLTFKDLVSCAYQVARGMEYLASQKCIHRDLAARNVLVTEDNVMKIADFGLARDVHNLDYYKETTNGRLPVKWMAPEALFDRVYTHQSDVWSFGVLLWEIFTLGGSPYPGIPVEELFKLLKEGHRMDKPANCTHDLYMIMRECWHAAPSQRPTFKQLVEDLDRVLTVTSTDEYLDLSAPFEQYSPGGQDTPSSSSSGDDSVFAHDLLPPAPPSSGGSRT
c-Abl, sequence (P00519 whole entry): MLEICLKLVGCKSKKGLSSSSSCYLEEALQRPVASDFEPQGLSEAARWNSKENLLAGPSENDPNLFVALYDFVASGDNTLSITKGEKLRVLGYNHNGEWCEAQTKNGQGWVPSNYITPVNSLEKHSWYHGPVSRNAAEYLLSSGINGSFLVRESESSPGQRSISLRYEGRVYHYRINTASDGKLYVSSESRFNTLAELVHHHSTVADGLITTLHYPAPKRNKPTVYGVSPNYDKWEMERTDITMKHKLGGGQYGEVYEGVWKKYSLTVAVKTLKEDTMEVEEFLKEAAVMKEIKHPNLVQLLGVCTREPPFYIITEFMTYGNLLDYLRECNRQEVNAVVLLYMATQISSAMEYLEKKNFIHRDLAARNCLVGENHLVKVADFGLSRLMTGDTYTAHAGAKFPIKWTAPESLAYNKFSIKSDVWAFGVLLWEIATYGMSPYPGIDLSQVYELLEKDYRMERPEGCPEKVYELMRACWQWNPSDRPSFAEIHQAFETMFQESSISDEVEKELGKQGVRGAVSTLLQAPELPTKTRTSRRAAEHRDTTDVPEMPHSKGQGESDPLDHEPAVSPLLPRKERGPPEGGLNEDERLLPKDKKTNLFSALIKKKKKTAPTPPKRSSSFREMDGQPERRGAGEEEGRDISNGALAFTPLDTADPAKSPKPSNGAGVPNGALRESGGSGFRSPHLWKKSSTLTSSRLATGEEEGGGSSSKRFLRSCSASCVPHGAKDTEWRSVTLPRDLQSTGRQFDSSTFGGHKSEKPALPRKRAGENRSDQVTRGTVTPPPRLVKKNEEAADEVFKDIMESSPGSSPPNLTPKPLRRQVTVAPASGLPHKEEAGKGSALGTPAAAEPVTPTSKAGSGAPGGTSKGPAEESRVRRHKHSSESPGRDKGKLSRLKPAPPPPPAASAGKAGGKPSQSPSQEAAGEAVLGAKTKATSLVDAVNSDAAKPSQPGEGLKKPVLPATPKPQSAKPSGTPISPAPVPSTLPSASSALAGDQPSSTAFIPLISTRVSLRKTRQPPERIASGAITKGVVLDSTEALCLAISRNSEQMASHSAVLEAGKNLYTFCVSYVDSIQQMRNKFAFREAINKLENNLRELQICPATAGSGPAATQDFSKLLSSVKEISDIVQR
PDGFRβ, sequence (P09619 33-1106, species assumed): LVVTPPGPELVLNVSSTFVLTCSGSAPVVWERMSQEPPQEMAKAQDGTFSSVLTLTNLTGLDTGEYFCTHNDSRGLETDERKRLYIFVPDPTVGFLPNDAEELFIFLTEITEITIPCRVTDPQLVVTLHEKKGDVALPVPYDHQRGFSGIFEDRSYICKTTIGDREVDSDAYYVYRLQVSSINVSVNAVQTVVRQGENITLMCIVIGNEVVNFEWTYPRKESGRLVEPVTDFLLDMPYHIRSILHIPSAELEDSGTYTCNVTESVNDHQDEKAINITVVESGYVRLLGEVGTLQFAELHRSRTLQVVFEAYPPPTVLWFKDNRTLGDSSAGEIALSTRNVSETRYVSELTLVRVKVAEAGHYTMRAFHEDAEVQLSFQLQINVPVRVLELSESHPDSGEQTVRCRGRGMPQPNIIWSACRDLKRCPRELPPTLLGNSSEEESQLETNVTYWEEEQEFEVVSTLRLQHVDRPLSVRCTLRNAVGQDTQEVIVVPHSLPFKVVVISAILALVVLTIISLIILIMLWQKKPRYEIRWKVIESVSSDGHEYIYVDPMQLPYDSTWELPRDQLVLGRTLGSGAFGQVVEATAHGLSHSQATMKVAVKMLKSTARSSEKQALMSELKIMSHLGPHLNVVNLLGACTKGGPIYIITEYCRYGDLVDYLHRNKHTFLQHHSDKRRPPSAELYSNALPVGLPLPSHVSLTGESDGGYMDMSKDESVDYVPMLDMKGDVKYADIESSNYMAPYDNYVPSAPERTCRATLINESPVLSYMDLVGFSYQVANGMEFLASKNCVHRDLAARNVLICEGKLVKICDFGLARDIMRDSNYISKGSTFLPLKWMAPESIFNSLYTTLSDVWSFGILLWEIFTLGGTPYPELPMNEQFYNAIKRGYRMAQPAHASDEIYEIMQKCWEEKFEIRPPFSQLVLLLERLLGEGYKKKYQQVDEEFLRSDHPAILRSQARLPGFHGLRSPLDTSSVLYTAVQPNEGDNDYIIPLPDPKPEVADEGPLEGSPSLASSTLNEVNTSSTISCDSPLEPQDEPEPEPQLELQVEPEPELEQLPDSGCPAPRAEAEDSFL

Row | Compound | melting point | inhibition at 10 µM ([5]; 10 μM, Examples 1 to 169) | inhibition at 10 µM [6, 10] | inhibition at 10 µM [8] | also measured
1 | Cc1ccc(NC(=O)c2cccc(C(F)(F)F)c2)cc1NC(=O)N(CCN1CCOCC1)c1cc(N)ncn1 [Example 214, N-{3-[3-(6-Amino-pyrimidin-4-yl)-3-(2-morpholin-4-yl-ethyl)-ureido]-4-methyl-phenyl}-3-trifluoromethyl-benzamide] | – | – | – | – | IC50 [1]: 0.4 nM; IC50 [2]: 14.9 nM; IC50 [3]: 65 nM; GI50 [4]: 49 nM
2 | Cc1ccc(NC(=O)c2cccc(C(F)(F)F)c2)cc1NC(=O)N(C)c1cc(Nc2ccc(N3CCN(C)CC3)cc2)ncn1 [Example 171, N-[4-Methyl-3-(3-methyl-3-{6-[4-(4-methyl-piperazin-1-yl)-phenyl-amino]-pyrimidin-4-yl}-ureido)-phenyl]-3-trifluoromethyl-benzamide] | 189.5 to 191 °C | – | – | – | inhibition at 10 µM ([5]; 10 μM, Examples 171 to 206): 87 to 100%; inhibition at 10 µM [6, 9]: 56 to 98%; inhibition at 10 µM [7]: 79 to 100%
3 | Cc1ccc(NC(=O)c2ccc(CN3CCN(C)CC3)c(C(F)(F)F)c2)cc1NC(=O)N(C)c1cc(N)ncn1 [Example 194, N-{3-[3-(6-Amino-pyrimidin-4-yl)-3-methyl-ureido]-4-methyl-phenyl}-4-(4-methyl-piperazin-1-ylmethyl)-3-trifluoromethyl-benzamide] | 191.5 to 193 °C | – | – | – | inhibition at 10 µM ([5]; 10 μM, Examples 171 to 206): 87 to 100%; inhibition at 10 µM [6, 9]: 56 to 98%; inhibition at 10 µM [7]: 79 to 100%
4 | CN1CCN(c2cccc(Nc3cc(NC(=O)Nc4c(Cl)cc(Cl)cc4Cl)ncn3)c2)CC1 [Example 86, 1-{6-[3-(4-Methyl-piperazin-1-yl)-phenylamino]-pyrimidin-4-yl}-3-(2,4,6-trichloro-phenyl)-urea] | 138 to 142 °C | 67 to 100% | 27 to 100% | 12 to 100% | –
5 | CN1CCC(COc2ccc(Nc3cc(NC(=O)Nc4c(Cl)cc(Cl)cc4Cl)ncn3)cc2)CC1 [Example 69, 1-{6-[4-(1-Methyl-piperidin-4-ylmethoxy)-phenylamino]-pyrimidin-4-yl}-3-(2,4,6-trichloro-phenyl)-urea] | 189 to 191 °C | 67 to 100% | 27 to 100% | 12 to 100% | –
6 | O=C(Nc1cc(N[C@H]2CC[C@H](O)CC2)ncn1)Nc1c(Cl)cc(Cl)cc1Cl [Example 88, 1-[6-((trans)-4-Hydroxy-cyclohexylamino)-pyrimidin-4-yl]-3-(2,4,6-trichloro-phenyl)-urea] | 171 to 173 °C | 67 to 100% | 27 to 100% | 12 to 100% | –
7 | CN1CCC(COc2ccc(Nc3cc(NC(=O)Nc4c(Cl)cccc4Cl)ncn3)cc2)CC1 [Example 71, 1-(2,6-Dichloro-phenyl)-3-{6-[4-(1-methyl-piperidin-4-ylmethoxy)-phenylamino]-pyrimidin-4-yl}-urea] | 183 to 185 °C | 67 to 100% | 27 to 100% | 12 to 100% | –
8 | CC(C)(C)[Si](C)(C)O[C@H]1CC[C@H](Nc2cc(NC(=O)Nc3c(Cl)cc(Cl)cc3Cl)ncn2)CC1 [Example 87, 1-{6-[(trans)-4-(tert-Butyl-dimethyl-silanyloxy)-cyclohexylamino]-pyrimidin-4-yl}-3-(2,4,6-trichloro-phenyl)-urea] | 198 to 199 °C | – | – | 12 to 100% | inhibition at 10 µM [5]: 67 to 100%; inhibition at 10 µM ([6]; read-out: FGFR3 (K650E) inhibition at 10 μM): 27 to 100%
